Measured values taken from patent publication US20260109707A1, “HETEROBIFUNCTIONAL COMPOUNDS AND METHODS OF TREATING DISEASE” (Halda Therapeutics OpCo. Inc., priority 2022, published 2026).
Read-outs that look alike come from different tables or passages of the source.

Columns and labels:
[1] = tested on: T-Rex 293 cell line SC3 cells having increased expression of androgen receptor protein due to exposure to doxycycline; test: Cellular growth inhibition assay, T-Rex 293 SC3 cells with doxycycline (CellTiter-Glo, 72 hours); format: cell-based; conditions: T-Rex 293 SC3 cells with increased androgen receptor expression due to doxycycline (10 ng/mL)
Procedure, shortened: (§1)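 Doxycycline (10 ng/mL) was either included or omitted to toggle wild-type androgen receptor expression in SC3 cells, a T-Rex 293 clone, grown in stripped-serum, phenol red-free medium. After 72 hours with compound, viable cells were quantified by CellTiter-Glo 2.0.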

[2] = tested on: VCaP cells; test: Cellular growth inhibition assay for VCaP cells (CellTiter-Glo, 72 hours); format: cell-based, human
Procedure, shortened: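 Luminescent viability signal after 72 h of compound exposure gave GI50 values by four-parameter nonlinear regression. Compounds were added in 0.5% DMSO to cells plated 24 h earlier at 5000/well in DMEM containing 10% FBS.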

[3] = tested on: T-Rex 293 cell line SC3 cells lacking increased expression of androgen receptor protein; test: Cellular growth inhibition assay, T-Rex 293 SC3 cells without doxycycline (CellTiter-Glo, 72 hours); format: cell-based; conditions: T-Rex 293 cell line SC3 cells not exposed to doxycycline (lacking increased androgen receptor expression)
Procedure, shortened: as §1

[4] = tested on: T47D cells; test: Cellular growth inhibition assay for T47D cells (CellTiter-Glo, 72 hours); format: cell-based, human; conditions: 72 hours treatment
Procedure, shortened: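 Luminescence from CellTiter-Glo 2.0 after 72 h of compound exposure gives the viability signal. Cells grew in insulin-supplemented (0.2 units/mL) DMEM with 10% FBS and were treated one day after seeding at 0.5% DMSO. GI50 values come from four-parameter nonlinear regression.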

SMILES | GI50 ([1]; 72 h) | GI50 ([2]; Homo sapiens, VCaP, 72 h) | GI50 ([3]; 72 h) | GI50 ([4]; Homo sapiens, T47D, 72 h) | GI50 [2] | GI50 [3] | GI50 [1] | GI50 [4]
Cc1sc2c(c1C)C(c1ccc(N3CCC4(CC3)CCN(c3ccc(C(=O)N[C@H]5CC[C@H](Oc6ccc(C#N)c(Cl)c6)CC5)nn3)C4)cc1)=NC1(CC1)c1nnc(C)n1-2 [I-399] | < 0.5 µM | < 0.5 µM | 0.5 to 1.5 µM | 1.5 to 3 µM |  |  |  | 
Cc1sc2c(c1C)C(c1ccc(CC3CC4(CCN(c5ccc(C(=O)N[C@H]6CC[C@H](Oc7ccc(C#N)c(Cl)c7)CC6)nn5)CC4)C3)cc1)=N[C@H](Cc1ncco1)c1nnc(C)n1-2 [I-111] | < 0.5 µM | < 0.5 µM | > 3 µM | > 3 µM |  |  |  | 
CCNC(=O)C[C@@H]1N=C(c2ccc(OCCN(C)c3ccc(C(=O)N[C@H]4CC[C@H](Oc5ccc(C#N)c(Cl)c5)CC4)nn3)cc2)c2c(sc(C)c2C)-n2c(C)nnc21 [I-49] | < 0.5 µM | < 0.5 µM | 0.5 to 1.5 µM | 0.5 to 1.5 µM |  |  |  | 
Cc1sc2c(c1C)C(c1ccc(CCC[C@H]3CCCN(c4ccc(C(=O)N[C@H]5CC[C@H](OC6CCC(C#N)C(Cl)C6)CC5)nn4)CC3)cc1)=N[C@@H](Cc1ncco1)c1nnc(C)n1-2 (stereo partly shown) [I-395] | < 0.5 µM | < 0.5 µM | < 0.5 µM | < 0.5 µM |  |  |  | 
Cc1sc2c(c1C)C(c1ccc(OC3CCC4(C3)CN(c3ccc(C(=O)N[C@H]5CC[C@H](Oc6ccc(C#N)c(Cl)c6)CC5)nn3)C4)cc1)=N[C@@H](Cc1ncco1)c1nnc(C)n1-2 (stereo partly shown) [I-85] | < 0.5 µM | < 0.5 µM | < 0.5 µM | < 0.5 µM |  |  |  | 
Cc1sc2c(c1C)C(c1ccc(C[C@H]3C[C@H](C4CCCN(c5ccc(C(=O)N[C@H]6CC[C@H](Oc7ccc(C#N)c(Cl)c7)CC6)nn5)C4)C3)cc1)=N[C@@H](Cc1ncco1)c1nnc(C)n1-2 (stereo partly shown) [I-121] | 1.5 to 3 µM | > 3 µM | > 3 µM | 1.5 to 3 µM |  |  |  | 
Cc1sc2c(c1C)C(c1ccc(OC3CC4(CCN(c5ccc(C(=O)N[C@H]6CC[C@H](Oc7ccc(C#N)c(Cl)c7)CC6)nn5)CC4)C3)nc1)=N[C@@H](C)c1nnc(C)n1-2 [I-433] | < 0.5 µM |  |  | 0.5 to 1.5 µM | > 3 µM | 0.5 to 1.5 µM |  | 
Cc1sc2c(c1C)C(c1ccc(C[C@H]3C[C@]4(CCCN(c5ccc(C(=O)N[C@H]6CC[C@H](Oc7ccc(C#N)c(Cl)c7)CC6)nn5)C4)C3)nc1)=N[C@@H](Cc1ncco1)c1nnc(C)n1-2 [I-385] | < 0.5 µM | < 0.5 µM | > 3 µM | 0.5 to 1.5 µM |  |  |  | 
Cc1sc2c(c1C)C(c1ccc(OC[C@@H]3CC[C@@]4(CCCN(c5ccc(C(=O)N[C@H]6CC[C@H](Oc7ccc(C#N)c(Cl)c7)CC6)nn5)C4)C3)cc1)=N[C@@H](Cc1ncco1)c1nnc(C)n1-2 [I-103] | < 0.5 µM | < 0.5 µM | < 0.5 µM | < 0.5 µM |  |  |  | 
CC1=NN=C2C1c1sc(C)c(C)c1C(c1ccc(C3CCC4(CC3)CCN(c3ccc(C(=O)N[C@H]5CC[C@H](Oc6ccc(C#N)c(Cl)c6)CC5)nn3)CC4)cc1)=N[C@@H]2Cc1ncco1 (stereo partly shown) [I-410] | < 0.5 µM | < 0.5 µM | < 0.5 µM | < 0.5 µM |  |  |  | 
Cc1sc2c(c1C)C(c1ccc(N3CCC4(CC3)CC(Cc3ccc(C(=O)N[C@H]5CC[C@H](Oc6ccc(C#N)c(Cl)c6)CC5)nn3)C4)cc1)=NC(Cc1ncco1)c1nnc(C)n1-2 (stereo partly shown) [I-416] |  |  |  |  | < 0.5 µM | 0.5 to 1.5 µM | < 0.5 µM | < 0.5 µM
Cc1sc2c(c1C)C(c1ccc(C#CC3CC4(CCCN(c5ccc(C(=O)NC6CCC(Oc7ccc(C#N)c(Cl)c7)CC6)nn5)C4)C3)cc1)=NCc1nnc(C)n1-2 (stereo not shown) [I-419] | < 0.5 µM | < 0.5 µM | > 3 µM | < 0.5 µM |  |  |  | 
Cc1sc2c(c1C)C(c1ccc(N3CCC4(CC3)CCN(c3ccc(C(=O)NC5CCC(Oc6ccc(C#N)c(Cl)c6)CC5)nn3)CC4)cc1)=N[C@@H](Cc1ncco1)c1nnc(C)n1-2 (stereo partly shown) [I-397] | < 0.5 µM | < 0.5 µM | < 0.5 µM | < 0.5 µM |  |  |  | 
